Measured values reported in PubChem BioAssay (NCI).
Several values for one entry are separate records, joined by “and”; a condition that tells them apart may be missing. Equal values may be shown once.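 Step 1: Grow cells in 96-well plates. Step 2: Expose to compound for 48 hours at 5 concentrations. Step 3: Interpolate endpoints linearly; if unreached, use highest concentration. GI50 is the concentration that inhibits growth by half. TGI: concentration producing complete growth inhibition.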

How the values were obtained:
Assay in all cases: NCI anticancer screen, dose series, 48 h
A549 NSCLC = tested on: A549 NSCLC
MOLT-4 leukemia = tested on: MOLT-4 leukemia
SF-268 CNS = tested on: SF-268 CNS
SF-539 CNS = tested on: SF-539 CNS
SN12C renal = tested on: SN12C renal
SR leukemia = tested on: SR leukemia
U251 CNS = tested on: U251 CNS
UO-31 renal = tested on: UO-31 renal
A498 renal = tested on: A498 renal
EKVX NSCLC = tested on: EKVX NSCLC

COc1nc2c(cc1S(=O)(=O)c1ccccc1)CCc1c-2cnn1-c1ccccc1Cl
GI50 (A549 NSCLC): 4.97 µM | TGI (A549 NSCLC): > 100 µM | GI50 (MOLT-4 leukemia): 4.76 µM | TGI (MOLT-4 leukemia): > 100 µM | GI50 (SF-268 CNS): 17 µM | TGI (SF-268 CNS): > 100 µM | GI50 (SF-539 CNS): > 100 µM | TGI (SF-539 CNS): > 100 µM | GI50 (SN12C renal): 19.6 µM | TGI (SN12C renal): > 100 µM | GI50 (SR leukemia): 5.01 µM | TGI (SR leukemia): > 100 µM | GI50 (U251 CNS): 5.94 µM | TGI (U251 CNS): > 100 µM | GI50 (UO-31 renal): 3.13 µM | TGI (UO-31 renal): > 100 µM

NS(=O)(=O)c1ccc(-n2nc(-c3ccc(Br)cc3)ccc2=O)cc1
GI50 (A498 renal): > 10 µM | TGI (A498 renal): > 10 µM | GI50 (A549 NSCLC): > 10 µM | TGI (A549 NSCLC): > 10 µM | GI50 (MOLT-4 leukemia): > 10 µM | TGI (MOLT-4 leukemia): > 10 µM | GI50 (SF-268 CNS): > 10 µM | TGI (SF-268 CNS): > 10 µM | GI50 (SF-539 CNS): > 10 µM | TGI (SF-539 CNS): > 10 µM | GI50 (SN12C renal): > 10 µM | TGI (SN12C renal): > 10 µM | GI50 (SR leukemia): 8.85 µM | TGI (SR leukemia): > 10 µM | GI50 (U251 CNS): > 10 µM | TGI (U251 CNS): > 10 µM | GI50 (UO-31 renal): > 10 µM | TGI (UO-31 renal): > 10 µM

COc1ccc(N=Cc2cc(OC)c(OC)c(OC)c2)cc1
TGI (A498 renal): > 100 µM | TGI (A549 NSCLC): > 100 µM | TGI (EKVX NSCLC): > 100 µM | TGI (MOLT-4 leukemia): > 100 µM | TGI (SF-268 CNS): > 100 µM | TGI (SF-539 CNS): > 100 µM | TGI (SN12C renal): > 100 µM | TGI (U251 CNS): > 100 µM | TGI (UO-31 renal): > 100 µM

O=C1c2ccccc2-c2c1c1cc3c(cc1c(=O)n2CCCCl)OCO3
GI50 (A498 renal): 59.8 µM | TGI (A498 renal): > 100 µM | GI50 (A549 NSCLC): 36.3 µM | TGI (A549 NSCLC): > 100 µM | GI50 (EKVX NSCLC): > 100 µM | TGI (EKVX NSCLC): > 100 µM | GI50 (MOLT-4 leukemia): 35 µM | TGI (MOLT-4 leukemia): > 100 µM | GI50 (SF-268 CNS): 51.7 µM | TGI (SF-268 CNS): > 100 µM | GI50 (SF-539 CNS): 51.4 µM | TGI (SF-539 CNS): > 100 µM | GI50 (SN12C renal): 21.8 µM | TGI (SN12C renal): 77.6 µM | GI50 (U251 CNS): 22.8 µM | TGI (U251 CNS): 67.4 µM | GI50 (UO-31 renal): > 100 µM | TGI (UO-31 renal): > 100 µM

Cn1cc(C2=C(c3ccc(OC[C@@H](O)CO)cc3)C(=O)NC2=O)c2ccccc21
GI50 (A498 renal): 3.54 µM | TGI (A498 renal): 15.3 µM | GI50 (A549 NSCLC): > 25 µM | TGI (A549 NSCLC): > 25 µM | GI50 (MOLT-4 leukemia): > 25 µM | TGI (MOLT-4 leukemia): > 25 µM | GI50 (SF-268 CNS): > 25 µM | TGI (SF-268 CNS): > 25 µM | GI50 (SF-539 CNS): > 25 µM | TGI (SF-539 CNS): > 25 µM | GI50 (SN12C renal): > 25 µM | TGI (SN12C renal): > 25 µM | GI50 (SR leukemia): > 25 µM | TGI (SR leukemia): > 25 µM | GI50 (U251 CNS): > 25 µM | TGI (U251 CNS): > 25 µM | GI50 (UO-31 renal): > 25 µM | TGI (UO-31 renal): > 25 µM

C[Si](C)(C)c1ccc(CC2(Cc3ccc([Si](C)(C)C)cc3)CCNC2)cc1
TGI (A498 renal): 2.91 µM | TGI (A549 NSCLC): 5.22 µM | TGI (EKVX NSCLC): 18.9 µM | TGI (SF-268 CNS): 4.71 µM | TGI (SF-539 CNS): 10.4 µM | TGI (SN12C renal): 3.11 µM | TGI (U251 CNS): 3.02 µM | TGI (UO-31 renal): 5.9 µM

COC(=O)c1c(OC)cccc1C(=O)O
TGI (A498 renal): > 100 µM | TGI (A549 NSCLC): > 100 µM | TGI (EKVX NSCLC): > 100 µM | TGI (MOLT-4 leukemia): > 100 µM | TGI (SF-268 CNS): > 100 µM | TGI (SF-539 CNS): > 100 µM | TGI (SN12C renal): > 100 µM | TGI (U251 CNS): > 100 µM | TGI (UO-31 renal): > 100 µM

O=C1NC(=O)C2C(=O)NC(=O)C1C2(c1ccccc1)c1ccc(Cl)cc1 (stereo unspecified)
TGI (A498 renal): > 100 µM | TGI (A549 NSCLC): > 100 µM | TGI (EKVX NSCLC): > 100 µM | TGI (MOLT-4 leukemia): > 100 µM | TGI (SF-268 CNS): > 100 µM | TGI (SF-539 CNS): > 100 µM | TGI (SN12C renal): > 100 µM | TGI (UO-31 renal): > 100 µM

O=[N+]([O-])c1ccc(NSc2ccccc2)cc1
TGI (A549 NSCLC): > 100 µM | TGI (EKVX NSCLC): 90.1 µM | TGI (MOLT-4 leukemia): 49.4 µM | TGI (SF-268 CNS): > 100 µM | TGI (SF-539 CNS): 44.6 µM | TGI (SN12C renal): 35.5 µM | TGI (SR leukemia): 63.2 µM | TGI (U251 CNS): > 100 µM | TGI (UO-31 renal): > 100 µM

O=c1[nH]c(=O)n(C2CC(O)C(CO)O2)cc1C#Cc1c(F)c(F)c(F)c(F)c1F (stereo unspecified)
TGI (A549 NSCLC): > 100 µM | TGI (EKVX NSCLC): > 100 µM | TGI (MOLT-4 leukemia): > 100 µM | TGI (SF-268 CNS): > 100 µM | TGI (SF-539 CNS): > 100 µM | TGI (SN12C renal): > 100 µM | TGI (SR leukemia): > 100 µM | TGI (U251 CNS): > 100 µM | TGI (UO-31 renal): > 100 µM

O=C(O)CCCc1ccc(N(CCCl)CCCl)cc1
GI50 (A498 renal): 28.3 µM | TGI (A498 renal): 48.4 µM and 302 µM | GI50 (A549 NSCLC): 12.7 µM and > 89.5 µM | TGI (A549 NSCLC): > 92.2 µM and 633 µM and 621 µM | GI50 (MOLT-4 leukemia): 0.999 µM | TGI (MOLT-4 leukemia): 12.7 µM and 104 µM | GI50 (SF-268 CNS): 4.91 µM | TGI (SF-268 CNS): 23.7 µM and 220 µM and 169 µM | GI50 (SF-539 CNS): 7.28 µM and 18.2 µM | TGI (SF-539 CNS): 26.9 µM and 99.4 µM and 89.6 µM | GI50 (SR leukemia): 0.922 µM | TGI (U251 CNS): 29.9 µM and 219 µM and 251 µM | GI50 (UO-31 renal): 9.38 µM and 32 µM | TGI (UO-31 renal): 34.7 µM and 272 µM and 56.2 µM

O=C(O)/C=C/C(=O)Nc1ncn[nH]1
TGI (A498 renal): > 100 µM | TGI (A549 NSCLC): > 100 µM | TGI (EKVX NSCLC): > 100 µM | TGI (MOLT-4 leukemia): > 100 µM | TGI (SF-268 CNS): > 100 µM | TGI (SF-539 CNS): > 100 µM | TGI (SN12C renal): > 100 µM | TGI (U251 CNS): > 100 µM | TGI (UO-31 renal): > 100 µM

O=C1CC[C@H]2CNC(=O)C[C@H]2C1
TGI (A498 renal): > 100 µM | TGI (A549 NSCLC): > 100 µM | TGI (EKVX NSCLC): > 100 µM | TGI (MOLT-4 leukemia): > 100 µM | TGI (SF-268 CNS): > 100 µM | TGI (SF-539 CNS): > 100 µM | TGI (SN12C renal): > 100 µM | TGI (U251 CNS): > 100 µM | TGI (UO-31 renal): > 100 µM

CC(=O)OCCc1cccnc1/C=N/O
TGI (A549 NSCLC): > 100 µM | TGI (EKVX NSCLC): > 100 µM | TGI (MOLT-4 leukemia): > 100 µM | TGI (SF-268 CNS): > 100 µM | TGI (SF-539 CNS): > 100 µM | TGI (SN12C renal): > 100 µM | TGI (SR leukemia): > 100 µM | TGI (U251 CNS): > 100 µM | TGI (UO-31 renal): > 100 µM

Clc1ccc(Cc2nc3cc4ccccc4cc3[nH]2)cc1
GI50 (A498 renal): 21.7 µM | TGI (A498 renal): > 100 µM | GI50 (A549 NSCLC): 6.83 µM | TGI (A549 NSCLC): > 100 µM | GI50 (EKVX NSCLC): 26.9 µM | TGI (EKVX NSCLC): > 100 µM | GI50 (SF-268 CNS): 10.9 µM | TGI (SF-268 CNS): 75.7 µM | GI50 (SF-539 CNS): 3.08 µM | TGI (SF-539 CNS): 81.1 µM | GI50 (SN12C renal): 94.8 µM | TGI (SN12C renal): > 100 µM | GI50 (U251 CNS): 10.5 µM | TGI (U251 CNS): 29.6 µM | GI50 (UO-31 renal): 54.1 µM | TGI (UO-31 renal): > 100 µM

COc1cccc(-c2nc(-c3cnccn3)n(Cc3ccccc3)n2)c1
TGI (A549 NSCLC): > 100 µM | TGI (EKVX NSCLC): > 100 µM | TGI (MOLT-4 leukemia): > 100 µM | TGI (SF-268 CNS): > 100 µM | TGI (SF-539 CNS): > 100 µM | TGI (SN12C renal): > 100 µM | TGI (SR leukemia): > 100 µM | TGI (U251 CNS): > 100 µM | TGI (UO-31 renal): > 100 µM

Cn1c(-c2nonc2N)nc2cnccc21
GI50 (A498 renal): 16 µM | TGI (A498 renal): > 25 µM | GI50 (A549 NSCLC): > 25 µM | TGI (A549 NSCLC): > 25 µM | GI50 (EKVX NSCLC): 16.5 µM | TGI (EKVX NSCLC): > 25 µM | GI50 (MOLT-4 leukemia): > 25 µM | TGI (MOLT-4 leukemia): > 25 µM | GI50 (SF-268 CNS): > 25 µM | TGI (SF-268 CNS): > 25 µM | GI50 (SF-539 CNS): 12.2 µM | TGI (SF-539 CNS): > 25 µM | GI50 (SN12C renal): > 25 µM | TGI (SN12C renal): > 25 µM | GI50 (U251 CNS): > 25 µM | TGI (U251 CNS): > 25 µM | GI50 (UO-31 renal): > 17.8 µM | TGI (UO-31 renal): > 25 µM
